# Measured values published in patent publication US20190358371A1, “HEMOSTATIC DEVICES AND METHODS OF USE” (priority 2016, published 2019).
# What was measured:
# [1] = stability of rifampin and minocycline in PBS with and without tranexamic acid (Example 14); format: physicochemical; conditions: room temperature (about 23 C) and 37 C
# [2] = in vitro elution of rifampin and minocycline from p22-27.5 polymers with TXA in release media (Example 15); format: physicochemical; conditions: PBS pH 7.4, TXA 0, 0.05 or 5 mg/mL, over 25 hours
# Description: B1=PBS pH 7.4; B2=PBS, pH 7.4+TXA (0.05 mg/mL); B3=PBS, pH 7.4+TXA (5 mg/mL).
# blood = experiment: time required to induce blood clotting in vitro (Examples 17 and 18); format: biochemical
# Description: Tests were conducted to compare the time required to induce blood clotting in vitro when different amounts of hemostatic agent is administered in the presence of TYRX (degradable mesh coated with P22-27.5 containing rifampin and minocycline), as shown in FIG. 35.
# Tests were conducted to compare the time required for different hemostatic agents to induce blood clotting in vitro versus the time required to induce blood clotting in vitro when no hemostatic agent is administered. In particular, the time required to induce blood clotting was plotted for blood alone, TYRX), Surgicel, TYRX with 1.6 mg of TXA, 1.2 mg of TXA alone and TYRX with 200 mg of TXA. In this example, TYRX refers to a Glycoprene mesh that is coated with P22-27.5 (a polymer in the P22-X family) containing Rifampin and Minocycline.
# [3] = given preoperatively; cited from earlier work
percentage area in mixtures of rifampin and minocycline in PBS with versus without tranexamic acid [1],"elution rate from p22-27.5 polymer, effect of TXA in the release media [2]",Compound,time required to induce blood clotting in vitro (blood; 1.2 mg of TXA alone),"Clotting time with higher amounts of TXA (blood; 1.6 mg TXA vs 200 mg of TXA, in the presence of TYRX)",time to reach plasma concentrations [3]
substantially the same,not affected,CO[C@H]1/C=C/O[C@@]2(C)Oc3c(C)c(O)c4c(O)c(c(/C=N/N5CCN(C)CC5)c(O)c4c3C2=O)NC(=O)/C(C)=C\C=C\[C@H](C)[C@H](O)[C@@H](C)[C@@H](O)[C@@H](C)[C@H](OC(C)=O)[C@@H]1C [rifampin],–,–,–
–,–,NC[C@H]1CC[C@H](C(=O)O)CC1 [tranexamic acid],about 19 minutes,increased,5 to 15 min
